Data as given in ChEMBL document CHEMBL1201862, “PubChem BioAssay data set” (2004).
Active and inactive are the calls of the source.

Key:
[1] = molecular target: Beta-galactosidase (Escherichia coli, UniProt Q8VNN2); test: Dose response counterscreen for EBI2 assay utilizing the enzyme, b-galactosidase.; assay type: functional
[2] = HEK293T cell cytotoxicity, dose response, cytotoxicity control for HIV Vif inhibitor project, cherry-picks (AID 652208); assay type: functional, cell-based
[3] = molecular target: Melanocortin receptor 4 (Homo sapiens, UniProt P32245); assay type: functional, cell-based;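 also: Cell-based assay with luminescence read-out, confirmatory dose-response testing for agonist activity of biased ligands at MC4R; human U2OS cells with tagged receptor and beta-arrestin; potency of agonists that increase receptor coupling to beta-arrestin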
Melanocortin receptor 4, sequence (P32245 whole entry): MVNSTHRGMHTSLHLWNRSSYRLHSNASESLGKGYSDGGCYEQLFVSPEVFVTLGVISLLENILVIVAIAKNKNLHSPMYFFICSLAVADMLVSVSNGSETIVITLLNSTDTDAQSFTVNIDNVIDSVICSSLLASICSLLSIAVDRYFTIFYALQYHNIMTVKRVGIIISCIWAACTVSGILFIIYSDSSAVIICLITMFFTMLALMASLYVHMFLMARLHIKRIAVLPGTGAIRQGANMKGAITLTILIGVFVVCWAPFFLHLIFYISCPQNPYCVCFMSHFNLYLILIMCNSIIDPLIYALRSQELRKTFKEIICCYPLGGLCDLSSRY

[4] = molecular target: Protein disulfide-isomerase (Homo sapiens, UniProt P07237); test: PDI inhibitors, insulin turbidity readout, confirmation, biochemical, dry powder samples, set 2 (AID 652146)
Protein disulfide-isomerase, sequence (P07237 whole entry): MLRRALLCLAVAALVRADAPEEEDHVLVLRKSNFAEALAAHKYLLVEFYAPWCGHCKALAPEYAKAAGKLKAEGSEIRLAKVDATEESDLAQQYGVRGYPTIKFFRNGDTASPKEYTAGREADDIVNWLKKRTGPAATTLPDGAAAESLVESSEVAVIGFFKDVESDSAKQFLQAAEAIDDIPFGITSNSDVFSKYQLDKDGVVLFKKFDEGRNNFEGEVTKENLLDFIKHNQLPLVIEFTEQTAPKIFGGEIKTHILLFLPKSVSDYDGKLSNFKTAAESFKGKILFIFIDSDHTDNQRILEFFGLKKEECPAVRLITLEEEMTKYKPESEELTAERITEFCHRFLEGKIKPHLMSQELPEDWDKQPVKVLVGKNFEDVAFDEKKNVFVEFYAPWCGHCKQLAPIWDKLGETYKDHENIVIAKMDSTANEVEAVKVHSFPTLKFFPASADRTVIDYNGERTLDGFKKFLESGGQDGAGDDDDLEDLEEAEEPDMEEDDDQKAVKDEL

[5] = HeLa cell cytotoxicity, dose response, cytotoxicity control, ATP luminescence, dry powder (AID 652117); assay type: functional, cell-based
[6] = inhibitors of CMV-promoter luciferase reporter, dose response, counter-screen for Pax8 inhibitor project, cell-based, HEK293, luminescence, dry powder (AID 743020); assay type: functional
[7] = molecular target: Paired box protein Pax-8 (Homo sapiens, UniProt Q06710); test: inhibitors of PAX8-driven TPO luciferase reporter, dose response, RMG-I cells, cherry-pick (AID 687027); assay type: functional, cell-based;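 also: luciferase reporter driven by Pax8 target thyroperoxidase promoter measured by SteadyGlo luminescence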
Paired box protein Pax-8, sequence (Q06710 whole entry): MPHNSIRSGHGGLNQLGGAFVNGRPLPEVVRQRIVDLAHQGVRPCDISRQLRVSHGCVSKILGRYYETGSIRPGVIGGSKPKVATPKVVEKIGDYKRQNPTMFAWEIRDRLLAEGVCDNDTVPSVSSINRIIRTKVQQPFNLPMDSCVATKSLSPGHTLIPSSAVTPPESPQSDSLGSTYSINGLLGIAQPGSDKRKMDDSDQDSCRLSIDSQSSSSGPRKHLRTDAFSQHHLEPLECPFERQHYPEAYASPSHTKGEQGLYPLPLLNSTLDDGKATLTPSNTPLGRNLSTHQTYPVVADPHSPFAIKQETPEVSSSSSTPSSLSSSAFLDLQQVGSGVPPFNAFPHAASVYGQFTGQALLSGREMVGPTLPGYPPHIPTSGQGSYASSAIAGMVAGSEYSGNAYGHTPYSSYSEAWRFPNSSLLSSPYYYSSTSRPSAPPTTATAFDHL

[8] = IGROV1 ovarian cancer cell cytotoxicity, dose response, PAX8 inhibitor project, plate reader, dry powder samples (AID 743043); assay type: functional, cell-based; settings: IGROV-1
[9] = NIH:OVCAR-3 ovarian cancer cell cytotoxicity, dose response, PAX8 inhibitor project, plate reader, dry powder samples (AID 743044); assay type: functional, cell-based
[10] = cytotoxicity in OVCAR8 ovarian cancer cells, dose response, PAX8 project, cell-based, plate reader, dry powder samples (AID 743197); assay type: functional; settings: OVCAR-8
[11] = molecular target: T1, Sentrin-specific protease 6 (Homo sapiens, UniProt Q9GZR1); assay type: functional;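 also: Luminescence-based dose-response confirmatory assay of SENP6 inhibition, following up an ultra-high-throughput screen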
T1 sequence (Q9GZR1 whole entry): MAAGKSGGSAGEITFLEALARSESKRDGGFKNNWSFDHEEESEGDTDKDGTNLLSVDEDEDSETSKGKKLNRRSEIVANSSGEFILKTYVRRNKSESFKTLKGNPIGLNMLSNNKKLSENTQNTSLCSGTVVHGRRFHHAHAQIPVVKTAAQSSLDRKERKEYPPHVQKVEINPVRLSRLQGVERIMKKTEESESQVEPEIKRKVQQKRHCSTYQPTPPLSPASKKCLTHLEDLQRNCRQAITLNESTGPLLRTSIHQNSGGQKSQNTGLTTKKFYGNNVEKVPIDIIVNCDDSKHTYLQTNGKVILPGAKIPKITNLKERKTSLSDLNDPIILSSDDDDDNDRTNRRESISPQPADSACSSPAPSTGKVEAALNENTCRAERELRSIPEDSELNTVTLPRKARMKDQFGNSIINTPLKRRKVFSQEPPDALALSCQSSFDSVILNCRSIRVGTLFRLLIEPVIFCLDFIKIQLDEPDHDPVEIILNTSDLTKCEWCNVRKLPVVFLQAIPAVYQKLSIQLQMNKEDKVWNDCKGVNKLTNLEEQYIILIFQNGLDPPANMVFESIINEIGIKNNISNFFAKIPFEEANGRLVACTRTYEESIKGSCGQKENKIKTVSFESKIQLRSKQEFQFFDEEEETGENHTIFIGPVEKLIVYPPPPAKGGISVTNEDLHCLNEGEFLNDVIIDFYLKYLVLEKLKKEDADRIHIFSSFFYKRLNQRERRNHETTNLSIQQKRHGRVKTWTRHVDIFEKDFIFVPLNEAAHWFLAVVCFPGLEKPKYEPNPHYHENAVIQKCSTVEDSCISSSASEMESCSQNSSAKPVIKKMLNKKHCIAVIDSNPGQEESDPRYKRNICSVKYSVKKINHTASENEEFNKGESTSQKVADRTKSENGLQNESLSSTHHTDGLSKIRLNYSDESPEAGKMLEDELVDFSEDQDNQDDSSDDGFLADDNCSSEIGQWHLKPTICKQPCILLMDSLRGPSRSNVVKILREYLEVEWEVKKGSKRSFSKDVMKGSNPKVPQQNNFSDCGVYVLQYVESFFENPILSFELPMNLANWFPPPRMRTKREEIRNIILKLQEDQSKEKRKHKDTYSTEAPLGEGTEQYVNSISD

[12] = cells; assay type: functional, cell-based
[13] = inhibitors of intracellular T. cruzi replication, confirmation, NIH3T3 host cells, beta-gal luminescence (AID 2044); assay type: functional, cell-based;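 also: intracellular parasites grown in NIH/3T3 mouse fibroblasts as host cells; luminescent beta-galactosidase reporter signal from transgenic T. cruzi replicating inside host cells; inhibitors lower the luminescence signal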
[14] = molecular target: Luciferin 4-monooxygenase (Photinus pyralis, UniProt P08659); test: firefly luciferase enzyme inhibitors, dose response, biochemical, luminescence (AID 1891)
Luciferin 4-monooxygenase, sequence (P08659 whole entry): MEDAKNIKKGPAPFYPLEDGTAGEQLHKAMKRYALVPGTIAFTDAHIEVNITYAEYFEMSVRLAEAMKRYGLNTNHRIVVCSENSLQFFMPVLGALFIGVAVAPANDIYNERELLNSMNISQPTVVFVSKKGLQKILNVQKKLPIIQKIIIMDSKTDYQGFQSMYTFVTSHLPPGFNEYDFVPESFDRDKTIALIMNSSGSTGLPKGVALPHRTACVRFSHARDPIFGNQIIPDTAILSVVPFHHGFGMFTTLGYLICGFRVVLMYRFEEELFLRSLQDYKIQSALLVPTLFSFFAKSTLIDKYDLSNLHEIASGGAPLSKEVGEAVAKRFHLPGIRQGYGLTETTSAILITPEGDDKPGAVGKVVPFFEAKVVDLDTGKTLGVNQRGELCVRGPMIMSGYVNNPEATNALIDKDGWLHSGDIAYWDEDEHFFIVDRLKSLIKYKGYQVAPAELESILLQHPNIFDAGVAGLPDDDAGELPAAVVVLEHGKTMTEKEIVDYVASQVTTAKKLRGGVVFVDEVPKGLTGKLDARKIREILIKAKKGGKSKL

[15] = tested on: BJ; test: cytotoxicity toward BJ-TERT-LT-ST fibroblasts, dose response, cell-based, RAS-independent, luminescence (AID 1935); assay type: functional; settings: Homo sapiens;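 also: BJ fibroblasts immortalized with TERT plus LT and ST oncogenes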
[16] = tested on: INS1; test: beta cell apoptosis inhibitors, cytokine rescue, dose response, luminescence, retest (AID 449756); assay type: functional, cell-based; settings: Rattus norvegicus;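 also: cell death triggered by IL-1 beta plus TNF-alpha plus IFN-gamma mixture; protective hits raise ATP signal compared with cytokine alone wells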
[17] = molecular target: T2, Caspase-3 (Homo sapiens, UniProt P42574); assay type: functional;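 also: Dose-response selectivity test against caspase-3 for candidate inhibitors of sentrin-specific proteases (SENPs)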
T2 sequence (P42574 whole entry): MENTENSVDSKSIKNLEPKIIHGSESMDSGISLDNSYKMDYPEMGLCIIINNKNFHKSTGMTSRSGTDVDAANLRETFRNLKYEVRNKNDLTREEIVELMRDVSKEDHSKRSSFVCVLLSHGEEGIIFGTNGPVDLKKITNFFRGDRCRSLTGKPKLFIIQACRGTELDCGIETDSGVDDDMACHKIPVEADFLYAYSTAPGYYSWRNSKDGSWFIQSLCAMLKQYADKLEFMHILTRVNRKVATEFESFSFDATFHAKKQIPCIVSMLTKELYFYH

[18] = cytotoxicity toward DRD oncogenic fibroblasts, dose response, cell-based, non-viral oncogenic, luminescence (AID 1934); assay type: functional; settings: Homo sapiens
[19] = cells; assay type: functional, cell-based; remark: listed apart in the source
[20] = molecular target: T3, Sentrin-specific protease 8 (Homo sapiens, UniProt Q96LD8); assay type: functional;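 also: luminescence read-out of SENP8 inhibition, dose-response confirmation following an ultra-high-throughput screen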
T3 sequence (Q96LD8 whole entry): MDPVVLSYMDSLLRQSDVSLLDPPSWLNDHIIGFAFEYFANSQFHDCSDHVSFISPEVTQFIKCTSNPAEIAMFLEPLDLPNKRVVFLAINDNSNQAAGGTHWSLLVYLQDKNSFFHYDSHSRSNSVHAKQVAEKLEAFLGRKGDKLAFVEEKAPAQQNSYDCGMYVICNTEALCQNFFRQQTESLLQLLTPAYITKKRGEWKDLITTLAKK

[21] = Luminescence Cell-Based Dose Confirmation HTS to Identify Inhibitors of Platelet Dense Granule Release. [Related pubchem assays: 1663 (Primary HTS), 1678 (Summary of Project)]; assay type: functional
[22] = HepG2 cell cytotoxicity, dose response, cytotoxicity control, ATP luminescence, cherry-pick, activator set 2 (AID 1053143); assay type: functional, cell-based
[23] = molecular target: T4, Sentrin-specific protease 7 (Homo sapiens, UniProt Q9BQF6); assay type: functional;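 also: Luminescence-based dose-response confirmation of ultra-high-throughput screening hits, measuring inhibition of SENP7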
T4 sequence (Q9BQF6 whole entry): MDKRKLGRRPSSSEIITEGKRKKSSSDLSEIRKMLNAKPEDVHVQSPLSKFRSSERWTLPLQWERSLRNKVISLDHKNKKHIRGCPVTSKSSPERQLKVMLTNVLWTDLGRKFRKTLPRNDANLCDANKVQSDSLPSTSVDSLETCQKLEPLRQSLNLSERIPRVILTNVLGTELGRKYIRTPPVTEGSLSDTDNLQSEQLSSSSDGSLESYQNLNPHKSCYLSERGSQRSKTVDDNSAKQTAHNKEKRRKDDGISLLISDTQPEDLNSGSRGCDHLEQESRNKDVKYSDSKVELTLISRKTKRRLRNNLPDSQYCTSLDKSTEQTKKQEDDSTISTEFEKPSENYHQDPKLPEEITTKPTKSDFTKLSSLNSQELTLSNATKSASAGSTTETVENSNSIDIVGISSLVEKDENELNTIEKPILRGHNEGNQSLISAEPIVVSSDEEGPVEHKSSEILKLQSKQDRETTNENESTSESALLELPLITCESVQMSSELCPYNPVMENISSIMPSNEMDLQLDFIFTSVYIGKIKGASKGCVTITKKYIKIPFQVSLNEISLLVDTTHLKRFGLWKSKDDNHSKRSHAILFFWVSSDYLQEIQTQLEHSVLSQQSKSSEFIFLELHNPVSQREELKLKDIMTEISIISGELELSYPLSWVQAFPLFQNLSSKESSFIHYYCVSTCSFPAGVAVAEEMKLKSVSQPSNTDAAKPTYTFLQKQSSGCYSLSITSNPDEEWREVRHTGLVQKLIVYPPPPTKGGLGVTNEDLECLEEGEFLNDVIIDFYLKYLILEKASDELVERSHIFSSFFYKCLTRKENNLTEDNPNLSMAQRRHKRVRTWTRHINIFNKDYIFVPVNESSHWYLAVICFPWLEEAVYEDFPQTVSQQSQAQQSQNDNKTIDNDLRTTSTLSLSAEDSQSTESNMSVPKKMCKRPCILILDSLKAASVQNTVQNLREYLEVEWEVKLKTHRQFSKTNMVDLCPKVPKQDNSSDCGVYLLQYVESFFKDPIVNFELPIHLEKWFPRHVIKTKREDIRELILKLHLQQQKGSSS

[24] = tested on: BJ; test: cytotoxicity toward BJ-TERT fibroblasts, dose response, cell-based, RAS-independent, luminescence (AID 1933); assay type: functional; settings: Homo sapiens
[25] = cytotoxicity toward NIH3T3 fibroblasts, dose response, counter-screen, cell-based, ATP luminescence, mouse fibroblasts (AID 2010); assay type: functional;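 also: cells exposed to compound for about 90 hours before reading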
[26] = tested on: BJ; test: cells; assay type: functional, cell-based; settings: Homo sapiens
[27] = HEK293T cytotoxicity, dose response, cytotoxicity control for miR-122 modulator project, cell-based, inhibitor set, cherry-pick, set 2 (AID 720697); assay type: functional

Beta-galactosidase, sequence (Q8VNN2 whole entry): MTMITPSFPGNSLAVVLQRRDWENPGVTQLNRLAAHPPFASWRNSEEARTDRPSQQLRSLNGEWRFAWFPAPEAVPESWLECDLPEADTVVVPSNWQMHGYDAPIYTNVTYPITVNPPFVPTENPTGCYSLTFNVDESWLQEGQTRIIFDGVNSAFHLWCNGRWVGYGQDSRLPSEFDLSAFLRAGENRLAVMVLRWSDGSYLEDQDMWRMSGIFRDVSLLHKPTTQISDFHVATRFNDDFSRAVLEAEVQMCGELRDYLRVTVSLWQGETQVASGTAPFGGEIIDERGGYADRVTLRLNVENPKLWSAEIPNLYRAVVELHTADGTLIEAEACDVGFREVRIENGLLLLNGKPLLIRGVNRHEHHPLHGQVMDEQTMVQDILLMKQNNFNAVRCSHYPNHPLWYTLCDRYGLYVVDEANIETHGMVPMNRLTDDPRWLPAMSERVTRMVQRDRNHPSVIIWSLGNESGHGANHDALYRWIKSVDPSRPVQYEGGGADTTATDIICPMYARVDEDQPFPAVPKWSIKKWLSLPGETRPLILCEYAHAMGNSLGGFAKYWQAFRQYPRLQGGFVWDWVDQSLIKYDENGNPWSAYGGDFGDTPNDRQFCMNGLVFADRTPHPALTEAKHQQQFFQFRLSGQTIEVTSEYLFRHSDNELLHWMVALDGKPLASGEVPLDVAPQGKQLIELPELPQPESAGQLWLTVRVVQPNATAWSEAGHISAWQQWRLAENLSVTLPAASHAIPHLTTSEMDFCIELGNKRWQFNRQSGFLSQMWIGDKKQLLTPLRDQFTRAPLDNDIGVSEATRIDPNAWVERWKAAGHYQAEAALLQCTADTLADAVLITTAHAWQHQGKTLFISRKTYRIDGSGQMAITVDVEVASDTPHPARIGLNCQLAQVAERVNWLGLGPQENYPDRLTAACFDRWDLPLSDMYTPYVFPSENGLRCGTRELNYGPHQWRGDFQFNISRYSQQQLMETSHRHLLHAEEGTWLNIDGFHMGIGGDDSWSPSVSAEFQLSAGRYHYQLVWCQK

Q: Which IC50 [1] does the source give for `COc1cccc(C(=O)N2CCN(C(=O)COc3ccc4ccccc4c3)CC2)c1` here?
A: Its IC50 is > 80 µM (inactive).

Q: Which AC50 [2] does the source give for `NC(CCc1ccccc1)c1csc(Nc2ccc(C(=O)c3ccccc3)cc2)n1` (configuration not stated) here?
A: Its AC50 is 27.7 µM (active).

Q: And the EC50 [3]?
A: The EC50 was > 89.2 µM (inactive).

Q: Which AC50 [4] does the source give for `CCOC(=O)C1(CCOc2ccccc2)CCN(Cc2cccc(Cl)c2)CC1` here?
A: The AC50 was > 30 µM (inactive).

Q: And the AC50 [5]?
A: The AC50 was 32.3 µM (active).

Q: For `C[C@H]1CCCCO[C@H](CN(C)C(=O)c2ccccc2)[C@@H](C)CN([C@@H](C)CO)C(=O)c2cc(NC(=O)Nc3ccc(C(F)(F)F)cc3)ccc2O1`, which AC50 [6] is on record?
A: Its AC50 is 30.1 µM (active).

Q: What about the AC50 [7] of the same molecule?
A: The AC50 was 9.48 µM (active).

Q: And the AC50 [8]?
A: Its AC50 is 37.6 µM (active).

Q: And the AC50 [9]?
A: Its AC50 is 29.5 µM (active).

Q: What about the AC50 [10] of the same molecule?
A: The AC50 was 47.8 µM (active).

Q: Which IC50 [11] does the source give for `CCN(CC)c1ccc(/C=N/NC(=O)c2ccoc2C)c(O)c1` here?
A: Its IC50 is 0.849 µM (active).

Q: What about the EC50 [12] of the same molecule?
A: Its EC50 is 51.7 µM (active).

Q: What about the EC50 [13] of the same molecule?
A: Its EC50 is 0.83 µM (active).

Q: What about the EC50 [14] of the same molecule?
A: Its EC50 is 0.785 µM (active).

Q: And the EC50 [15]?
A: The EC50 was 15.6 µM (active).

Q: What about the AC50 [16] of the same molecule?
A: The AC50 was 0.622 µM (active).

Q: And the IC50 [17]?
A: The IC50 was 0.942 µM (active).

Q: And the EC50 [18]?
A: The EC50 was 6.96 µM (active).

Q: What about the EC50 [19] of the same molecule?
A: Its EC50 is 7.38 µM (active).

Q: And the IC50 [20]?
A: Its IC50 is 1.33 µM (active).

Q: And the EC50 [21]?
A: Its EC50 is 2.06 µM (active).

Q: What about the AC50 [22] of the same molecule?
A: Its AC50 is 9.01 µM (active).

Q: What about the IC50 [23] of the same molecule?
A: Its IC50 is 0.757 µM (active).

Q: What about the EC50 [24] of the same molecule?
A: The EC50 was 3.02 µM (active).

Q: And the EC50 [25]?
A: The EC50 was 3.59 µM (active).

Q: What about the EC50 [26] of the same molecule?
A: Its EC50 is 6.42 µM (active).

Q: For `CN1C(=O)c2cc(NC(=O)c3cccs3)ccc2OC[C@H]2O[C@@H](CC(=O)N3CCCCC3)CC[C@H]21`, which AC50 [27] is on record?
A: The AC50 was 9.9 µM (active).
